Test results: BigSolDB 2.1

O=C(O)c1ccc[nH]c1=O
solubility (mole fraction)
Conditions	in acetone	in acetonitrile	in ethanol	in ethyl acetate	in isopropanol	in methanol	in n-butanol	in n-butyl acetate	in sec-butanol	in water
293.15 K	0.00135	0.000837	0.000992	0.000248	0.000278	0.00097	0.000215	5.2e-05	0.000138	0.000796
303.15 K	0.00199	0.00116	0.00134	0.000365	0.000401	0.00146	0.00031	7.5e-05	0.000199	0.00111
308.15 K	0.00233	–	–	–	–	–	–	–	–	–
313.15 K	0.00277	0.00169	0.00177	0.000559	0.000565	0.0021	0.000437	0.000105	0.000283	0.00159
318.15 K	0.0033	0.0019	0.00218	0.000661	0.000595	0.00253	0.000515	0.000124	0.000331	0.00195
323.15 K	0.00374	0.00218	0.0025	0.000795	0.000772	0.00297	0.000603	0.000146	0.000384	0.00237
333.15 K	–	0.00282	0.00351	0.00124	0.00106	0.00378	0.000817	0.000197	0.000525	0.00326
